In one test the test system is α-amylase. Nature of the test: In vitro α-amylase inhibitory assay. To be noted: for IC50: read-out: The α-amylase activity: IC50 ± SD, DF = 100.
Test [1] concerns the target T1, Human PPAR-γ (Peroxisome Proliferator-Activated Receptor Gamma) (Homo sapiens, UniProt P37231).
T1 sequence (P37231 1-505): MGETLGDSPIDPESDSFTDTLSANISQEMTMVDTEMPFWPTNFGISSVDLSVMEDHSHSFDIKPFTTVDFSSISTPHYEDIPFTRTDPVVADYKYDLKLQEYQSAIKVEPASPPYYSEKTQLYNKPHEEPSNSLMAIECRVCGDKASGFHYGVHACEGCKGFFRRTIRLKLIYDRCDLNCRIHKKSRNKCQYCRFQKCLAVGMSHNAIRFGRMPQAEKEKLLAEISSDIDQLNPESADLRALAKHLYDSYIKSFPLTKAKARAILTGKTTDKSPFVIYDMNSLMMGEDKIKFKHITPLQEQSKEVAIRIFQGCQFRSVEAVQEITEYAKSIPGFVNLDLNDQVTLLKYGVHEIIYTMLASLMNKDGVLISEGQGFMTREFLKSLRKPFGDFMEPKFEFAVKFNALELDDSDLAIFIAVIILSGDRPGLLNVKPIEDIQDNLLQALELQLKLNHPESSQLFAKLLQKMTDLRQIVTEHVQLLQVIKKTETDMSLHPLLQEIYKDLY
Description: In vitro PPAR-γ transactivation assay. It is filed as biochemical. To be noted: for PPAR-γ Folds: folds compared to Pioglitazone (= 1).

The test system of another test is α-glucosidase. Nature of the test: In vitro α-glucosidase inhibitory assay. To be noted: for α-Glucosidase activity: IC50 ± SD: DF = 100, five concentrations 10, 5, 1, 0.1, 0.01 μg mL^−1. It is filed as biochemical.

Results on nine compounds are retold here after PMC11091863 (RSC Advances, 2024).

Usually IC50 stands for the concentration at which inhibition is half-maximal.

Each structure is given as a SMILES string.

On to `N#CC(C#N)=C(N)c1cc2cc(S(N)(=O)=O)ccc2oc1=N` [Compound 3, 3-(1-Amino-2,2-dicyanovinyl)-2-imino-2H-chromene-6-sulfonamide], for which, in the test with α-amylase, the “The α-amylase activity: Inhibitory percentage at 100 μg mL^−1” value was found to be 96% and the IC50 came out at 14.6 ± 0.16 µM.
As to `NS(=O)(=O)c1ccc2oc(=O)c(C(=O)Nc3cccc(C(F)(F)F)c3)cc2c1` [Compound 7, 2-Oxo-6-sulfamoyl-N-(3-(trifluoromethyl)phenyl)-2H-chromene-3-carboxamide], in the test with α-amylase, the “The α-amylase activity: Inhibitory percentage at 100 μg mL^−1” value worked out at 96.2% and the IC50 turned out to be 4.39 ± 0.06 µM.
Regarding `N#Cc1cc2cc(S(N)(=O)=O)ccc2oc1=N` [Compound 2, 3-Cyano-2-imino-2H-chromene-6-sulfonamide], in test [1], the half-inhibitory concentration (IC50) is 12.6 µM and the “PPAR-γ Folds” value is about 1.55. For the same compound, in the test on α-glucosidase, the “α-Glucosidase activity: Inhibitory potential at 10 μg mL^−1” value amounted to 90.7% and the “α-Glucosidase activity: IC50 ± SD” value amounted to 0.548 ± 0.02 µg/mL. Moreover, in the test with α-amylase, the “The α-amylase activity: Inhibitory percentage at 100 μg mL^−1” value worked out at 96.1% and the IC50 was found to be 1.76 ± 0.01 µM. For the same compound, in the test on α-amylase (compound 2 relative to derivative 3), the “Increase of α-amylase inhibitory potency, fold” value was about 8.31 fold.
Consider `CCOC(=O)c1ccc(NC(=O)c2cc3cc(S(N)(=O)=O)ccc3oc2=O)cc1` [Compound 9, Ethyl 4-(2-oxo-6-sulfamoyl-2H-chromene-3-carboxamido)benzoate], for which, in test [1], it took 8.9 µM to reach half-maximal inhibition (IC50) and the “PPAR-γ Folds” value is given as about 1.32. Further, in the test with α-glucosidase, the “α-Glucosidase activity: Inhibitory potential at 10 μg mL^−1” value worked out at 83.8% and the “α-Glucosidase activity: IC50 ± SD” value was 2.44 ± 0.09 µg/mL. Moreover, in the test on α-amylase, the “The α-amylase activity: Inhibitory percentage at 100 μg mL^−1” value amounted to 96.6% and the IC50 came out at 1.08 ± 0.02 µM.
Turning to `NS(=O)(=O)c1ccc2oc(=O)c(C(=O)Nc3ccc(F)cc3)cc2c1` [Compound 6, N-(4-fluorophenyl)-2-oxo-6-sulfamoyl-2H-chromene-3-carboxamide], in the test with α-amylase, the “The α-amylase activity: Inhibitory percentage at 100 μg mL^−1” value amounted to 95.4% and the IC50 amounted to 2.11 ± 0.03 µM.
Consider `C[C@H]1O[C@H](O[C@H]2[C@H](O)[C@@H](O)[C@@H](O[C@H]3[C@H](O)[C@@H](O)C(O)O[C@@H]3CO)O[C@@H]2CO)[C@H](O)[C@@H](O)[C@@H]1N[C@H]1C=C(CO)[C@@H](O)[C@H](O)[C@H]1O` (stereo partly drawn) [Acarbose, reference compound], for which, in the test with α-glucosidase, the “α-Glucosidase activity: Inhibitory potential at 10 μg mL^−1” value is recorded as 90.1%. The “The α-amylase activity: Inhibitory percentage at 100 μg mL^−1” value in the test with α-amylase stood at 96.5%.
For the compound `NS(=O)(=O)c1ccc2oc(=O)c(C(=O)Nc3ccc(Cl)cc3)cc2c1` [Compound 8, N-(4-chlorophenyl)-2-oxo-6-sulfamoyl-2H-chromene-3-carboxamide], in the test on α-amylase, the “The α-amylase activity: Inhibitory percentage at 100 μg mL^−1” value turned out to be 95.4% and the IC50 is 4.23 ± 0.06 µM.
Turning to `CCOC(=O)c1cc2cc(S(N)(=O)=O)ccc2oc1=O` [Compound 5, Ethyl 2-oxo-6-sulfamoyl-2H-chromene-3-carboxylate], in the test with α-amylase, the “The α-amylase activity: Inhibitory percentage at 100 μg mL^−1” value was determined as 93.4% and the concentration for half-maximal inhibition (IC50) came out at 32.6 ± 0.33 µM.
The like results for `CC(=O)c1cc2cc(S(N)(=O)=O)ccc2oc1=O` [Compound 4, 3-Acetyl-2-oxo-2H-chromene-6-sulfonamide] were, in that order, 94.2% and 8.55 ± 0.31 µM.
